This note sets out measurements from patent US11479551B2, “MTA-cooperative PRMT5 inhibitors” (Mirati Therapeutics, Inc., priority 2019, dated 2022).

Structures are written as SMILES. pIC50: −log10 of the molar value.

Experiment [1] concerns PRMT5-dependent Symmetric Di-methyl Arginine signal in HCT116 homozygous MTAP knockout cells. In words: SYM11 In-Cell Western, HCT116 MTAP knockout. The experiment is classed as cell-based. As to conditions: Homo sapiens, HCT-116, 96 h, HCT116 homozygous MTAP knockout cells, 4 days of treatment, SYM11/DRAQ5 ratio; read-out: In-cell-Western (SYM11) HCT116 MTAP_KO IC50.
Another experiment deals with PRMT5/MEP50 complex (Homo sapiens (Human), UniProt O14744). In words: PRMT5:MEP50 HotSpot Assay (full-length histone H2A substrate, plus and minus MTA). As to conditions: IC50 + 2 μM MTA, in the presence of 2 μM MTA. The class given is biochemical. In outline: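 Tritium incorporated into recombinant full-length histone H2A was counted by scintillation after stopped reactions were captured on filter paper.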

The test system of experiment [2] is PRMT5-dependent Symmetric Di-methyl Arginine signal in HCT116 parental cells. In words: SYM11 In-Cell Western, HCT116 parental. The experiment is classed as cell-based. As to conditions: Homo sapiens, HCT-116, 96 h, 4 days of treatment, SYM11/DRAQ5 ratio. In outline:
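HCT116 parental cells (2,000/well, McCoy's 5A with 10% FBS) dosed with PRMT5 inhibitors for four days at 37° C. Fixed in paraformaldehyde and methanol, then stained with SYM11 antibody and DRAQ5.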

Another experiment relates to HCT116 parental cells. The experiment can be described thus: Proliferation assay (CellTiter-Glo, 10 days of treatment), HCT116 parental. The following applies: Homo sapiens, HCT-116, 240 h. The class given is cell-based. In outline: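 250 cells seeded in McCoy's 5A with 10% FBS, then given a dose response of PRMT5 inhibitor at 37 °C, 5% CO2 for five days. Cells were split 1:10 on Day 6 into fresh medium with the same compound concentration for 5 more days. Viability read on Day 11 by CellTiter-Glo; IC50 after 10 days of treatment.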

Experiment [3] concerns HCT116 homozygous MTAP knockout cells. The experiment can be described thus: Proliferation assay (CellTiter-Glo, 10 days of treatment), HCT116 MTAP knockout. The experiment is classed as cell-based. As to conditions: Homo sapiens, HCT-116, 240 h, read-out: Proliferation HCT116MTAP_KO IC50. In outline:
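Viability of the CRISPR/Cas9 homozygous MTAP-knockout HCT116 line was read by CellTiter-Glo after 10 days of PRMT5 inhibitor exposure, with IC50 derived from the dose response. Compound was given the day after seeding and renewed at an identical concentration when cells were split 1:10 on day 6.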

Chain of PRMT5/MEP50 complex (O14744 2-637): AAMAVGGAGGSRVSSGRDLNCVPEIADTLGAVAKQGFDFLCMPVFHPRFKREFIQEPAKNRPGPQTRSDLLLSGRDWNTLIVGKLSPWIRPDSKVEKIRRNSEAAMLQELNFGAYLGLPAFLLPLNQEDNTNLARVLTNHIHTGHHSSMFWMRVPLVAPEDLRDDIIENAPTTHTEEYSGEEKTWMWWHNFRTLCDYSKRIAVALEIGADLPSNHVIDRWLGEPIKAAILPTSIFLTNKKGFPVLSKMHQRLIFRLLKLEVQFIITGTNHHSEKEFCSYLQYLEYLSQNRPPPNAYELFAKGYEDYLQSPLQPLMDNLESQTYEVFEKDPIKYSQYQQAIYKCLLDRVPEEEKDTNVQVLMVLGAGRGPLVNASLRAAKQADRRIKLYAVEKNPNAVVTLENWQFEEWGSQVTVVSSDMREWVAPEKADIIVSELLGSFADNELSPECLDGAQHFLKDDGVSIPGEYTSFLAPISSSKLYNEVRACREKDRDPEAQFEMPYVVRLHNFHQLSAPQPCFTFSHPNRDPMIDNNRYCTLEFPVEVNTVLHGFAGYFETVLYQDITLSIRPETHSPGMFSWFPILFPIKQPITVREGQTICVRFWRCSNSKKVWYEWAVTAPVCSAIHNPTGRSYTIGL
Chain of PRMT5/MEP50 complex (Q9BQA1 2-342 partner): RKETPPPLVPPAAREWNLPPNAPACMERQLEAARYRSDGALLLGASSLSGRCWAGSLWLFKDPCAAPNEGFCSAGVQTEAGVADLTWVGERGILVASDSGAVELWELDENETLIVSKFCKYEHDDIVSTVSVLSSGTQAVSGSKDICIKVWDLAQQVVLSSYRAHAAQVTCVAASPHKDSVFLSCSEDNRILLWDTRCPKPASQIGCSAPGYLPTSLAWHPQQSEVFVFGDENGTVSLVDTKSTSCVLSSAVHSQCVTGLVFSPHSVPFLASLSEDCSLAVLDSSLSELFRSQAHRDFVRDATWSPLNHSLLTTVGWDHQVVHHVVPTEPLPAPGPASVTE

Consider `[2H]C([2H])(N)c1n[nH]c(=O)c2ccc(-c3cnn(C)c3-c3cccc(Cl)c3C#N)cc12` [Example 11-1, 2-(4-(4-(aminomethyl-d2)-1-oxo-1,2-dihydrophthalazin-6-yl)-1-methyl-1H-pyrazol-5-yl)-6-chlorobenzonitrile], for which the pIC50 in experiment [1] was 7.24; at PRMT5/MEP50 complex, 5.71; in experiment [2] it was below 6.00; in the experiment on HCT116 parental cells, below 5.00; in experiment [3] it was 6.09.

`CCOc1cccc(-c2c(-c3cc(Cl)c4c(=O)[nH]nc(CN)c4c3)cnn2C)c1C#N` [Example 10-5, 2-(4-(4-(aminomethyl)-8-chloro-1-oxo-1,2-dihydrophthalazin-6-yl)-1-methyl-1H-pyrazol-5-yl)-6-ethoxybenzonitrile]: the pIC50 was 7.52 in experiment [1]; 5.94 on PRMT5/MEP50 complex; below 5.00 in experiment [2]; below 5.00 in the experiment with HCT116 parental cells; 6.60 in experiment [3].

`Cc1c(Cl)ccc(-c2c(-c3ccc4c(=O)[nH]nc(CN)c4c3)cnn2C)c1C#N` [Example 12-1, 6-(4-(4-(aminomethyl)-1-oxo-1,2-dihydrophthalazin-6-yl)-1-methyl-1H-pyrazol-5-yl)-3-chloro-2-methylbenzonitrile]: the pIC50 in experiment [1] is 7.55; at PRMT5/MEP50 complex, 6.50; in experiment [2], below 6.00; in the experiment with HCT116 parental cells, below 5.00; in experiment [3], 6.80.

As to `CCOc1cccc(-c2c(-c3cc(F)c4c(=O)[nH]nc(CN)c4c3)cnn2C)c1C#N` [Example 10-10, 2-(4-(4-(aminomethyl)-8-fluoro-1-oxo-1,2-dihydrophthalazin-6-yl)-1-methyl-1H-pyrazol-5-yl)-6-ethoxybenzonitrile], the pIC50 in experiment [1] was 7.05; on PRMT5/MEP50 complex it was 5.56; in experiment [2], below 5.00; in the experiment with HCT116 parental cells, below 5.00; in experiment [3] it was 5.90.

For the compound `Cc1cc(-c2c(-c3ccc4c(=O)[nH]nc(CN)c4c3)cnn2C)c(C#N)cc1Cl` [Example 4-132, 2-(4-(4-(aminomethyl)-1-oxo-1,2-dihydrophthalazin-6-yl)-1-methyl-1H-pyrazol-5-yl)-5-chloro-4-methylbenzonitrile], the pIC50 is 7.62 in experiment [1]; 5.59 on PRMT5/MEP50 complex; below 5.00 in experiment [2]; below 5.00 in the experiment on HCT116 parental cells; 6.23 in experiment [3].

With `Cn1ncc(-c2ccc3c(=O)[nH]nc(CN)c3c2)c1-c1ccc2ccccc2n1` [Example 4-182, 4-(aminomethyl)-6-(1-methyl-5-(quinolin-2-yl)-1H-pyrazol-4-yl)phthalazin-1(2H)-one], the pIC50 was 7.24 in experiment [1]; 5.85 at PRMT5/MEP50 complex; below 6.00 in experiment [2]; 5.14 in the experiment with HCT116 parental cells; 6.24 in experiment [3].

As for `CCc1cc(Cl)cc(-c2c(-c3ccc4c(=O)[nH]nc(CN)c4c3)cnn2C)c1C#N` [Example 4-200, 2-(4-(4-(aminomethyl)-1-oxo-1,2-dihydrophthalazin-6-yl)-1-methyl-1H-pyrazol-5-yl)-4-chloro-6-ethylbenzonitrile], the pIC50 in experiment [1] is 7.49; at PRMT5/MEP50 complex it was 6.81; in experiment [2] it was 5.76; in the experiment on HCT116 parental cells it was 5.37; in experiment [3] it was 7.15.

`CCc1cccc(-c2c(-c3cc(Cl)c4c(=O)[nH]nc(CN)c4c3)cnn2C)c1C#N` [Example 10-4, 2-(4-(4-(aminomethyl)-8-chloro-1-oxo-1,2-dihydrophthalazin-6-yl)-1-methyl-1H-pyrazol-5-yl)-6-ethylbenzonitrile]: the pIC50 in experiment [1] is 8.15; on PRMT5/MEP50 complex, 6.38; in experiment [2], 5.04; in the experiment with HCT116 parental cells, below 5.00; in experiment [3], 6.89.

Take `COc1cc(Cl)c(C#N)c(-c2c(-c3ccc4c(=O)[nH]nc(CN)c4c3)cnn2C)c1` [Example 4-169, 2-(4-(4-(aminomethyl)-1-oxo-1,2-dihydrophthalazin-6-yl)-1-methyl-1H-pyrazol-5-yl)-6-chloro-4-methoxybenzonitrile]: the pIC50 was 7.45 in experiment [1]; 5.87 on PRMT5/MEP50 complex; 5.35 in experiment [2]; below 5.00 in the experiment with HCT116 parental cells; 6.53 in experiment [3].

`CCc1cc(OC)cc(-c2c(-c3ccc4c(=O)[nH]nc(CN)c4c3)cnn2C)c1C#N` [Example 4-202, 2-(4-(4-(aminomethyl)-1-oxo-1,2-dihydrophthalazin-6-yl)-1-methyl-1H-pyrazol-5-yl)-6-ethyl-4-methoxybenzonitrile]: the pIC50 was 8.10 in experiment [1]; 6.59 on PRMT5/MEP50 complex; below 6.00 in experiment [2]; 5.63 in the experiment with HCT116 parental cells; 6.63 in experiment [3].

As for `[2H]C([2H])(N)c1n[nH]c(=O)c2ccc(-c3cnn(C)c3-c3ccc4ccccc4c3C#N)cc12` [Example 11-2, 2-(4-(4-(aminomethyl-d2)-1-oxo-1,2-dihydrophthalazin-6-yl)-1-methyl-1H-pyrazol-5-yl)-1-naphthonitrile], the pIC50 in experiment [1] is 9.00; on PRMT5/MEP50 complex, 6.86; in experiment [2], below 5.00; in the experiment with HCT116 parental cells it was 5.71; in experiment [3], 7.03.

Regarding `Cn1ncc(-c2ccc3c(=O)[nH]nc(CN)c3c2)c1-c1ccc2c(Cl)cccc2c1C#N` [Example 4-184, 2-(4-(4-(aminomethyl)-1-oxo-1,2-dihydrophthalazin-6-yl)-1-methyl-1H-pyrazol-5-yl)-5-chloro-1-naphthonitrile], the pIC50 in experiment [1] is 8.40; at PRMT5/MEP50 complex, 6.90; in experiment [2] it was below 5.00; in the experiment on HCT116 parental cells it was 5.03; in experiment [3] it was 6.97.

Regarding `CCc1cc(CC)c(C#N)c(-c2c(-c3ccc4c(=O)[nH]nc(CN)c4c3)cnn2C)c1` [Example 12-3, 2-[4-[4-(aminomethyl)-1-oxo-2H-phthalazin-6-yl]-2-methyl-pyrazol-3-yl]-4,6-diethyl-benzonitrile], the pIC50 is 8.10 in experiment [1]; 6.67 on PRMT5/MEP50 complex; below 6.00 in experiment [2]; 5.77 with HCT116 parental cells; 6.86 in experiment [3].

As to `Cn1ncc(-c2cc(Cl)c3c(=O)[nH]nc(CN)c3c2)c1-c1ccc2ccccc2c1C#N` [Example 10-1, 2-(4-(4-(aminomethyl)-8-chloro-1-oxo-1,2-dihydrophthalazin-6-yl)-1-methyl-1H-pyrazol-5-yl)-1-naphthonitrile], the pIC50 in experiment [1] is 7.82; on PRMT5/MEP50 complex, 7.38; in experiment [2], 5.95; in the experiment on HCT116 parental cells it was 5.64; in experiment [3] it was 7.44.

With `Cc1ccc(-c2c(-c3ccc4c(=O)[nH]nc(CN)c4c3)cnn2C)c(C#N)c1C` [Example 12-2, 6-(4-(4-(aminomethyl)-1-oxo-1,2-dihydrophthalazin-6-yl)-1-methyl-1H-pyrazol-5-yl)-2,3-dimethylbenzonitrile], the pIC50 was 7.80 in experiment [1]; 6.50 at PRMT5/MEP50 complex; 5.66 in experiment [2]; 6.68 in the experiment with HCT116 parental cells; below 5.00 in experiment [3].

Consider `Cn1ncc(-c2ccc3c(=O)[nH]nc(CN)c3c2)c1-c1ccc2cccnc2c1C#N` [Example 4-192, 7-(4-(4-(aminomethyl)-1-oxo-1,2-dihydrophthalazin-6-yl)-1-methyl-1H-pyrazol-5-yl)quinoline-8-carbonitrile], for which the pIC50 in experiment [1] was 6.59; on PRMT5/MEP50 complex, 6.05; in experiment [2], below 5.00; with HCT116 parental cells it was below 5.00; in experiment [3], 5.67.

Take `CCc1cccc(-c2c(-c3cc(F)c4c(=O)[nH]nc(CN)c4c3)cnn2C)c1C#N` [Example 10-8, 2-(4-(4-(aminomethyl)-8-fluoro-1-oxo-1,2-dihydrophthalazin-6-yl)-1-methyl-1H-pyrazol-5-yl)-6-ethylbenzonitrile]: the pIC50 is 7.57 in experiment [1]; 6.18 on PRMT5/MEP50 complex; 5.33 in experiment [2]; below 5.00 in the experiment with HCT116 parental cells; 6.56 in experiment [3].

`Cn1ncc(-c2ccc3c(=O)[nH]nc(CN)c3c2)c1-c1ccccc1F` [Example 4-142, 4-(aminomethyl)-6-(5-(2-fluorophenyl)-1-methyl-1H-pyrazol-4-yl)phthalazin-1(2H)-one]: the pIC50 in experiment [1] was 7.31; at PRMT5/MEP50 complex, 6.06; in experiment [2] it was 5.20; in the experiment with HCT116 parental cells, 5.24; in experiment [3], 5.75.

Take `Cc1c(-c2cnn(C)c2)ccc(-c2c(-c3ccc4c(=O)[nH]nc(CN)c4c3)cnn2C)c1C#N` [Example 12-13, 6-(4-(4-(aminomethyl)-1-oxo-1,2-dihydrophthalazin-6-yl)-1-methyl-1H-pyrazol-5-yl)-2-methyl-3-(1-methyl-1H-pyrazol-4-yl)benzonitrile]: the pIC50 in experiment [1] is 7.02; at PRMT5/MEP50 complex, 6.66; in experiment [2], below 6.00; in the experiment with HCT116 parental cells it was 5.70; in experiment [3], 5.85.
